The results in this text go back to the supplement of paper PMC10307832.

Common to all, as to experiment: relative viability (nuclei count vs DMSO), 5 days (fraction); higher = more cells survive
Compound in experiment [1]: Cc1nc(NC(=O)N2CCC[C@H]2C(N)=O)sc1-c1ccnc(C(C)(C)C(F)(F)F)c1 [Alpelisib] + CC(=O)Nc1cccc(-n2c(=O)n(C3CC3)c(=O)c3c(Nc4ccc(I)cc4F)n(C)c(=O)c(C)c32)c1 [Trametinib] (partner 0.02 µM)
In outline: (§1)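 After 5 days of treatment, lung cancer cells in 1536-well plates were fixed and stained in a single step (final 0.05% Triton X-100, 1% formaldehyde, 1 ug/ml Hoechst) and their nuclei counted on 4× images. Treatment had been applied by pin tool the day after seeding as one drug alone or as a fixed anchor-drug dose with five library-drug doses (not always all listed) in √10 steps. Relative viability is the nuclei count of treated wells divided by that of vehicle wells, and values are medians of duplicate plates.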

Compound in experiment [2]: CCCS(=O)(=O)Nc1ccc(F)c(C(=O)c2c[nH]c3ncc(-c4ccc(Cl)cc4)cc23)c1F [Vemurafenib] + C[C@@H](Oc1cc(-c2cnn(C3CCNCC3)c2)cnc1N)c1c(Cl)ccc(F)c1Cl [Crizotinib] (partner 1 µM)
In outline: as §1

Compound in experiment [3]: CCCS(=O)(=O)Nc1ccc(F)c(C(=O)c2c[nH]c3ncc(-c4ccc(Cl)cc4)cc23)c1F [Vemurafenib] + CC(=O)Nc1cccc(-n2c(=O)n(C3CC3)c(=O)c3c(Nc4ccc(I)cc4F)n(C)c(=O)c(C)c32)c1 [Trametinib] (partner 0.02 µM)
In outline:
as §1

Compound in experiment [4]: COc1cccc2cc(-c3nc([C@H]4CC[C@H](C(=O)O)CC4)n4ncnc(N)c34)[nH]c12 [OSI-027] + N=C(N)NC(=N)NCCc1ccccc1 [Phenformin] (partner 250 µM)
The method in brief: as §1

Turning to BEN, the relative viability in experiment [1] (first compound 0.04 µM) amounted to 0.909; in experiment [1] (first compound 0.1265 µM), 1.17; in experiment [1] (first compound 0.4 µM) it was 1.17; in experiment [1] (first compound 1.265 µM), 0.863; in experiment [1] (first compound 4 µM) it was 1.03; in experiment [2] (first compound 0.03162 µM), 0.812. Besides, the relative viability in experiment [2] (first compound 0.1 µM) came to 0.9; in experiment [2] (first compound 0.3162 µM) it was 0.603; in experiment [2] (first compound 1 µM) it was 0.817; in experiment [3] (first compound 0.03162 µM), 0.935; in experiment [3] (first compound 0.1 µM) it was 1.01; in experiment [3] (first compound 0.3162 µM), 0.638. The relative viability in experiment [3] (first compound 1 µM) amounted to 0.811; in experiment [4] (first compound 0.01 µM), 0.248; in experiment [4] (first compound 0.03162 µM) it was 0.27; in experiment [4] (first compound 0.1 µM), 0.288; in experiment [4] (first compound 0.3162 µM), 0.244; in experiment [4] (first compound 1 µM) it was 0.232.

As to NCI-H1944, the relative viability in experiment [1] (first compound 0.04 µM) is 0.354; in experiment [1] (first compound 0.1265 µM), 0.425; in experiment [1] (first compound 0.4 µM), 0.4; in experiment [1] (first compound 1.265 µM), 0.313; in experiment [1] (first compound 4 µM) it was 0.275; in experiment [2] (first compound 0.03162 µM), 1.03. In addition, the relative viability in experiment [2] (first compound 0.1 µM) amounted to 0.816; in experiment [2] (first compound 0.3162 µM), 1.09; in experiment [2] (first compound 1 µM) it was 1.06; in experiment [3] (first compound 0.03162 µM) it was 0.453; in experiment [3] (first compound 0.3162 µM) it was 0.41; in experiment [3] (first compound 1 µM), 0.423. For the same cell line, the relative viability in experiment [4] (first compound 0.01 µM) was found to be 0.2; in experiment [4] (first compound 0.03162 µM), 0.222; in experiment [4] (first compound 0.1 µM), 0.19; in experiment [4] (first compound 0.3162 µM), 0.172; in experiment [4] (first compound 1 µM) it was 0.137.

As to 201T, the relative viability in experiment [1] (first compound 0.04 µM) was found to be 0.7; in experiment [1] (first compound 0.1265 µM) it was 0.723; in experiment [1] (first compound 0.4 µM), 0.716; in experiment [1] (first compound 1.265 µM), 0.645; in experiment [1] (first compound 4 µM), 0.586; in experiment [2] (first compound 0.03162 µM), 0.997. The relative viability in experiment [2] (first compound 0.1 µM) was 0.993; in experiment [2] (first compound 0.3162 µM), 1.09; in experiment [2] (first compound 1 µM), 1.02; in experiment [3] (first compound 0.03162 µM), 0.702; in experiment [3] (first compound 0.1 µM), 0.681; in experiment [3] (first compound 0.3162 µM) it was 0.752. Further, the relative viability turned out to be 0.779 in experiment [3] (first compound 1 µM); 0.477 in experiment [4] (first compound 0.01 µM); 0.45 in experiment [4] (first compound 0.03162 µM); 0.445 in experiment [4] (first compound 0.1 µM); 0.407 in experiment [4] (first compound 0.3162 µM); 0.371 in experiment [4] (first compound 1 µM).

Consider NCI-H2405, for which the relative viability in experiment [1] (first compound 0.04 µM) is 0.509; in experiment [1] (first compound 0.1265 µM) it was 0.641; in experiment [1] (first compound 0.4 µM), 0.549; in experiment [1] (first compound 1.265 µM), 0.369; in experiment [1] (first compound 4 µM), 0.381; in experiment [2] (first compound 0.03162 µM), 0.865. In addition, the relative viability was 0.827 in experiment [2] (first compound 0.1 µM); 0.766 in experiment [2] (first compound 1 µM); 0.622 in experiment [3] (first compound 0.03162 µM); 0.473 in experiment [3] (first compound 0.1 µM); 0.608 in experiment [3] (first compound 1 µM); 0.39 in experiment [4] (first compound 0.01 µM). Moreover, the relative viability was 0.355 in experiment [4] (first compound 0.03162 µM), 0.338 in experiment [4] (first compound 0.1 µM), 0.327 in experiment [4] (first compound 0.3162 µM) and 0.27 in experiment [4] (first compound 1 µM).

As for RERF-LC-KJ, the relative viability in experiment [1] (first compound 0.04 µM) was 0.86; in experiment [1] (first compound 0.1265 µM), 0.933; in experiment [1] (first compound 0.4 µM) it was 0.895; in experiment [1] (first compound 1.265 µM), 0.645; in experiment [1] (first compound 4 µM), 0.693; in experiment [2] (first compound 0.03162 µM), 0.838. Moreover, the relative viability in experiment [2] (first compound 0.1 µM) was found to be 0.834; in experiment [2] (first compound 0.3162 µM), 0.832; in experiment [2] (first compound 1 µM) it was 0.922; in experiment [3] (first compound 0.03162 µM) it was 0.826; in experiment [3] (first compound 0.1 µM), 0.921; in experiment [3] (first compound 0.3162 µM) it was 0.872. For the same cell line, the relative viability stood at 0.783 in experiment [3] (first compound 1 µM); 0.458 in experiment [4] (first compound 0.01 µM); 0.423 in experiment [4] (first compound 0.03162 µM); 0.383 in experiment [4] (first compound 0.1 µM); 0.383 in experiment [4] (first compound 0.3162 µM); 0.361 in experiment [4] (first compound 1 µM).
